Data on seven compounds can be found in US20090041897A1, “Transparent, concentrated liquid nutritional supplement composition” (priority 2007, published 2009).

For data set [1] the following is noted: general statement in the description; cited from earlier work.
Data set [2] can be described thus: solubility, turbidity and stability of ingredients in water. Type of data set: physicochemical. The following applies: minerals considered for the concentrate.
Experimental: Each ingredient or nutrient is evaluated at suitable concentration (based on actual usage level) in 100 ml deionized water enclosed in glass bottle and checked for turbidity. Only non turbidity producing materials (estimated at 25 NTU or less) were selected. Visual evaluation also conducted to ensure clear liquids are obtained. Solutions with an estimated 30 NTG and above are eliminated as potential ingredients. Bottles were also checked for precipitated solids at 0, 2, 4, 6, 8, 10 and 24 hours at room temperature. If precipitate is observed, the ingredient/nutrient is rendered unusable for producing appealing liquid nutritional supplement. Furthermore, ingredients are evaluated in a final diluted liquid nutritional supplement and/or diluents to ensure that dilution will not change the physical appearance of concentrates. […] Insoluble materials are excluded from the formulation. Saturation point is also observed for each ingredient/nutrient to ensure that no precipitation will occur. […] Each ingredient or nutrient is evaluated at suitable concentration (based on actual usage level) in 100 ml deionized water enclosed in glass bottle and checked turbidity. […] Furthermore, ingredients are evaluated in a final diluted liquid nutritional supplement to ensure that dilution will not change the physical appearance of concentrates. […]

Regarding `N[C@H]1C(O)O[C@H](CO)[C@@H](O)[C@@H]1O` (some centres unmarked) [Glucosamine], the solubility in water entry in data set [1] is “water-soluble”.

For `CS(C)(=O)=O` [MSM, Methyl-Sulfonyl-Methane], in data set [1], the solubility in water entry is reported as “readily water soluble”. In the case of `O=C1O[C@H]([C@@H](O)CO)C(O)=C1O` [Vitamin C, Ascorbic Acid], the stability in water entry in data set [1] is on record as “degrades in water in fast fashion”. For the compound `[Mg+2]` [magnesium], in data set [2], the “effect on clarity of concentrate and finished liquid nutritional supplement” value is “induce cloudiness and turbidity”; the solubility entry is recorded as “not soluble”. Take Chondroitin sulfate: in data set [1], the solubility in water entry is listed as “soluble in water”. As to Gelatin, the solubility in water entry in data set [1] was “soluble only in hot water”. In the case of Hydrolyzed Collagen, in data set [1], the solubility in water result was “readily water soluble”.
